Holding throughout (type): in vivo, mouse
One assay deals with EMT-6 cells. As to the kind of experiment: EMT-6 syngeneic breast cancer model in BALB/c mice. How it is done:
EMT-6 cells are of murine breast cancer origin. Female BALB/c mice were implanted intramammary with 5×10^4 EMT-6 cells per 100 μL PBS mice in the second right papilla. After inoculation, mice were randomized into 4 groups with 25 animals in each group according to inoculation order.
The mice were treated with vehicle (0.5% MC), OX86 (a murine specific anti-OX40 antibody), Compound 1 (PI3Kdelta inhibitor), and the combination of OX86 and Compound 1, respectively. OX86 was given at 0.4 mg/kg once per week (QW) by intraperitoneal (i.p.) injection, and Compound 1 was administered at 30 mg/kg twice per day (BID) by oral gavage (p.o.). Tumor volume was determined twice weekly and tumor growth inhibition was determined using the formula described in Example 14 above.

Another assay concerns A20 cells. The experiment in a line: A20 syngeneic B cell lymphoma model in BALB/c mice. The note with it: Compound 1 10 mg/kg p.o. How it is done:
A20 cells are of B cell lymphoma origin. Female BALB/c mice were subcutaneously implanted with 1×10^5 A20 cells in 150 μL PBS mice in the right flank. After inoculation, mice were randomized into 4 groups with 25 animals in each group according to inoculation order. The mice were treated with vehicle (0.5% MC), OX86 (a murine specific anti-OX40 antibody), Compound 1, and the combination of OX86 and Compound 1. OX86 was given at 0.4 mg/kg once a week by intraperitoneal injection, and Compound 1 was administered at 10 mg/kg twice a day by oral gavage. Tumor volume was determined twice weekly and the TGI calculated as described above.

The test system of another assay is CT26WT cells. The experiment in a line: CT26WT syngeneic colon carcinoma model in BALB/c mice. The settings on record: Compound 2A 10 mg/kg p.o. How it is done: CT26WT cells are of colon cancer origin. Female BALB/c mice were subcutaneously implanted with 1×10^5 CT26WT cells in 100 μL PBS in the right flank. After inoculation, mice were randomized into 4 groups according to inoculation order. The mice were treated with vehicle (0.5% MC) as a control. Antibody 1A7.grl (sequence disclosed in US2015/0307617) was confirmed to bind mouse OX40 in house.
[…] Compound 2A was administered as single agent at 10 mg/kg twice a day by oral gavage. The 1A7.gr1 antibody in combination with Compound 2A was administered as combination therapy at the same doses described above for each therapeutic given as a single agent. Tumor volume was determined twice weekly, and the TGI calculated as described above.

Setting [1] is: OX86 0.4 mg/kg QW i.p., Compound 1 30 mg/kg BID p.o.

With `Cc1nc([C@@H](C)c2cc(Cl)c(F)c(C(=O)NCCN3CCN(C)CC3)c2OC(C)C)n2ccnc(N)c12` [Compound 1, (S)-3-(1-(8-amino-1-methylimidazo[1,5-a]pyrazin-3-yl)ethyl)-5-chloro-6-fluoro-2-isopropoxy-N-(2-(4-methylpiperazin-1-yl)ethyl)benzamide], in the assay on EMT-6 cells (setting [1]), the “Mean Tumor Volume on Day 22 (mean ± SEM)” value was 758.1 ± 100.6 mm^3 and the “Tumor Free Animal” value is 4%. The “TGI on Day 22” value in the assay on EMT-6 cells (OX86 0.4 mg/kg QW×4 i.p., Compound 1 30 mg/kg BID×22 p.o.) was 26%. In the assay with A20 cells (OX86 0.4 mg/kg QW i.p.), the “Mean Tumor Volume on Day 26 (mean ± SEM)” value worked out at 683.9 ± 89.7 mm^3 and the “Tumor Free Animals at Day 47” value was found to be 0%. Further, the “TGI on Day 26” value in the assay with A20 cells (OX86 0.4 mg/kg QW×4 i.p.) was determined as 7%.
With `CC(C)Oc1c([C@H](C)c2nc(Cl)c3c(N)nccn23)cc(Cl)c(F)c1-c1ccc(C(F)(F)F)nc1` [Compound 2A, 1-chloro-3-(1-(5-chloro-4-fluoro-2-isopropoxy-3-(6-(trifluoromethyl)pyridin-3-yl)phenyl)ethyl) imidazo[1,5-a]pyrazin-8-amine], in the assay on CT26WT cells (1A7.gr1 2 mg/kg QW i.p.), the “Mean Tumor Volume on Day 25 (mean ± SEM)” value is on record as 941.6 ± 207.8 mm^3 and the “Tumor Free Animals at Day 35” value stood at 7%. Moreover, the “TGI on Day 25” value in the assay with CT26WT cells (1A7.gr1 2 mg/kg QW×4 i.p.) is given as 58%.
